Results as given in PubChem BioAssay AID624167 (Sanford-Burnham Center for Chemical Genomics, 2012).
The source made the active and inactive calls.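 The calls were made as follows: active = mean IC50 for reducing PEG3 promoter reporter signal at or below a set limit, with IC50 above the limit in both counter screens; inactive = the rest, including counter screen hits.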

Experiments:
Test in all cases: inhibition of PEG-3 promoter-driven reporter – cell-based, HeLa, luciferase, CREF/GAPDH counter-screen panel, dose response (AID 624167)
[1] = molecular target: PEG-3 (UniProt Q6IN02); details: HeLa PEG-Prom luciferase reporter, overnight, CREF/GAPDH counter-screens, mean of runs
Sequence of PEG-3 (UniProt Q6IN02) (Q6IN02 whole entry, looked up): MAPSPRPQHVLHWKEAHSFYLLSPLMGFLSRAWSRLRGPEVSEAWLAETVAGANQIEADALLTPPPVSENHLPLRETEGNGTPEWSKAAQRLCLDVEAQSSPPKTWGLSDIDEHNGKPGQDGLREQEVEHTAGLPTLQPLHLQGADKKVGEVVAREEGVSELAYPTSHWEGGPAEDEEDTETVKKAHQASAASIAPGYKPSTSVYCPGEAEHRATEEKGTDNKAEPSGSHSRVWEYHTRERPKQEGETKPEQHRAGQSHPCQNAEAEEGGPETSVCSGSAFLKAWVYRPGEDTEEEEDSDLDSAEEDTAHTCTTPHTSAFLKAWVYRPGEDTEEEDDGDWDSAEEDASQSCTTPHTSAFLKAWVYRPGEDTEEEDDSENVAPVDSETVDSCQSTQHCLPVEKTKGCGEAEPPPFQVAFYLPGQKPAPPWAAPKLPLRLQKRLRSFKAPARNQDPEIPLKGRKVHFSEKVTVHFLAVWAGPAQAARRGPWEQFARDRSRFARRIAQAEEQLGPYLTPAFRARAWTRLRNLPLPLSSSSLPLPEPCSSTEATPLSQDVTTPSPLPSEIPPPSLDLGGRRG

[2] = test system: Rat fibroblasts (CREF); details: CREF/GAPDH counter-screens
[3] = test system: PEG-3; details: HeLa PEG-Prom luciferase reporter, overnight, CREF/GAPDH counter-screens
[4] = run 1, dose range 1, individual replicate IC50 per panel
[5] = run 2, dose range 1, individual replicate IC50 per panel

Compound | IC50 [1] | IC50 ([2]; mean of runs) | IC50 [2, 4] | IC50 [2, 5] | IC50 [3, 4] | IC50 [3, 5]
O=C(NC1=NCCS1)C1COc2ccccc2O1 (stereo not drawn) | 1880 nM | 15100 nM | 14500 nM | 15700 nM | 1360 nM | 2390 nM
CC(C)(C)c1ccc(C(=O)O/N=C(\N)c2ccccn2)cc1 | inactive | 9840 nM | 9330 nM | 10300 nM | 367 nM | > 100000 nM
COc1ccc(C(=O)/C=C/Nc2ccccn2)cc1 | 2600 nM | 3610 nM | 3450 nM | 3770 nM | 2020 nM | 3180 nM
Cc1ccc2nc(NC(=O)c3ccccn3)sc2c1 | 1240 nM | 830 nM | 564 nM | 1100 nM | 1290 nM | 1180 nM
O=c1c2ccccc2cnn1-c1nc2ccccc2[nH]1 | 723 nM | 546 nM | 475 nM | 617 nM | 686 nM | 760 nM
Cc1csc(NC(=O)c2cn3ccccc3n2)n1 | 4150 nM | 1090 nM | 1110 nM | 1070 nM | 2680 nM | 5620 nM
S=C(NN=C(c1ccccc1)c1ccccn1)N(Cc1ccccn1)Cc1ccccn1 | 2190 nM | 6990 nM | 4590 nM | 9400 nM | 2580 nM | 1800 nM
CN(C)c1ccc(/C=C(\C#N)c2ccccn2)cc1 | 4320 nM | 639 nM | 531 nM | 747 nM | 4250 nM | 4380 nM
CCCN1C=CC(=C2C(=O)c3ccccc3C2=O)C=C1 | 538 nM | 538 nM | 469 nM | 606 nM | 783 nM | 292 nM
C(=Cc1cnc2ccccc2n1)c1ccc2c(c1)OCO2 | 1490 nM | 1120 nM | 1020 nM | 1210 nM | 1700 nM | 1270 nM
O=C(Nc1nc2cc3c(cc2s1)OCO3)C1=COCCO1 | 1970 nM | 2290 nM | 1920 nM | 2660 nM | 1680 nM | 2250 nM
COc1cccc(-c2sc3ccccc3c2-c2ccc(OCCN(C)C)cc2)c1 | 8800 nM | 14400 nM | 14600 nM | 14200 nM | 10000 nM | 7600 nM
CC1CCN(c2ccc(-c3cccs3)nn2)CC1 | 1820 nM | 341 nM | 316 nM | 366 nM | 2160 nM | 1480 nM
CC(=O)CSc1ccc(-c2nc3cc(C)c(C)cc3[nH]2)cn1 | 2020 nM | 2080 nM | 1790 nM | 2360 nM | 2210 nM | 1840 nM
O=C(Nc1nc2ccccc2[nH]1)c1ccccc1F | 1260 nM | 1470 nM | 1260 nM | 1680 nM | 1130 nM | 1400 nM
Cc1nc(-c2ccc(NC(=O)c3ccco3)cc2)cs1 | 1540 nM | 433 nM | 430 nM | 436 nM | 1390 nM | 1690 nM
O=C(O)c1cccc(COc2ccc3c(c2)CCC3)c1 | 1350 nM | 10300 nM | 10700 nM | 9920 nM | 823 nM | 1880 nM
COc1cc(/C=N/O)ccc1OCc1ccc(C(=O)O)cc1 | 1610 nM | 9430 nM | 10100 nM | 8800 nM | 1710 nM | 1510 nM
CCc1ccc(C(=O)Nc2nc3ccccc3[nH]2)cc1 | 2590 nM | 476 nM | 298 nM | 654 nM | 2240 nM | 2950 nM
Cc1cc(NC(c2cccnc2)c2ccc3cccnc3c2O)no1 (stereo not drawn) | 6130 nM | 5720 nM | 5650 nM | 5790 nM | 7220 nM | 5040 nM
COc1ccc(C(=O)CN2C(=O)c3ccccc3S2(=O)=O)cc1 | 3280 nM | 3150 nM | 3260 nM | 3040 nM | 2960 nM | 3590 nM
O=c1c(Cl)c(N2CCCCC2)cnn1-c1nc2ccccc2[nH]1 | 3250 nM | 714 nM | 810 nM | 618 nM | 3020 nM | 3490 nM
O=C(Nc1ccc([N+](=O)[O-])cc1)C(=O)Nc1cccc(C(=O)O)c1 | 1230 nM | 2670 nM | 2350 nM | 3000 nM | 1050 nM | 1400 nM
O=C(CNCCC1=CCCCC1)Nc1ccc(N2CCCCCC2)cc1 | 9980 nM | 16600 nM | 16500 nM | 16800 nM | 10600 nM | 9370 nM

Compound | IC50 [1] | IC50 ([2]; mean of runs) | IC50 [2, 4] | IC50 [2, 5] | IC50 [3, 4] | IC50 [3, 5]
CCOc1ccc2c(ccc(/C=C/c3cc(C)c4cccnc4c3O)[n+]2C)c1 | 5090 nM | 11800 nM | 11900 nM | 11700 nM | 4300 nM | 5880 nM
CCC1(OC(=O)CN)C(=O)OCc2c1cc1n(c2=O)Cc2cc3ccccc3nc2-1 (stereo not drawn) | 3340 nM | 1380 nM | 1070 nM | 1690 nM | 3800 nM | 2880 nM
NC(Cc1ccc(F)cc1)c1csc(Nc2cc(Oc3ccccc3)ncn2)n1 (stereo not drawn) | 10200 nM | 17200 nM | 21300 nM | 13100 nM | 13200 nM | 7160 nM
CC(C)CC(=NNC(=O)c1ccncc1)c1cc(Cl)ccc1O | 3410 nM | 10300 nM | 8210 nM | 12300 nM | 3350 nM | 3460 nM
CCOc1ccc(C(=O)O/N=C(\N)c2ccccn2)cc1 | 3410 nM | 2250 nM | 2350 nM | 2150 nM | 5040 nM | 1770 nM
Cc1cccc(CS(=O)(=O)c2ncc(Cl)c(C(=O)Nc3ccc(F)cc3)n2)c1 | 4730 nM | 2020 nM | > 80000 nM | 2020 nM | 6010 nM | 3440 nM
O=C1c2cccc3cc([N+](=O)[O-])cc(c23)C(=O)N1CCN1CCCC1 | 5570 nM | 4660 nM | 4170 nM | 5150 nM | 6200 nM | 4940 nM
COc1ccc(/C=N/Nc2nncc3ccccc23)cc1 | 6520 nM | 835 nM | 957 nM | 712 nM | 4620 nM | 8430 nM
COC(CNC(=O)c1ccc2c3c(onc13)-c1ccccc1C2=O)OC | 7480 nM | 18400 nM | 17600 nM | 19200 nM | 9320 nM | 5650 nM
COc1ccc(S(=O)(=O)/N=C2\C=C(Nc3ccc(O)cc3)C(=O)c3ccccc32)cc1 | 2580 nM | 1630 nM | 1380 nM | 1880 nM | 2500 nM | 2650 nM
COC1=C(Br)C(=O)c2ncccc2C1=O | 6650 nM | 14200 nM | 8910 nM | 19400 nM | 8010 nM | 5300 nM
C=CCn1c(C)cc(C(=O)CN2C(=O)c3ccccc3S2(=O)=O)c1C | 550 nM | 2710 nM | 1680 nM | 3730 nM | 795 nM | 306 nM
CCOc1ccc(NC(=O)c2ccccn2)cc1 | 3460 nM | 1280 nM | 921 nM | 1650 nM | 2890 nM | 4040 nM
Cc1ccc(-c2cc3c(nn2)-c2ccccc2C3=O)cc1 | 2760 nM | 337 nM | 270 nM | 403 nM | 2560 nM | 2950 nM
c1cc2c(cc1C1=NNC(=NC3CC3)SC1)OCCO2 | 764 nM | 4720 nM | 1390 nM | 8060 nM | 657 nM | 872 nM
CN(c1ccc2nc3ccccc3c(=O)n2n1)C1CCCCC1 | 3970 nM | 772 nM | 789 nM | 755 nM | 3000 nM | 4940 nM
Cc1ccc(-c2cc3c(N=O)c4ccccc4c-3n[nH]2)cc1 | 1030 nM | 18800 nM | 2730 nM | 34900 nM | 1200 nM | 860 nM
Cc1nn(-c2nc3ccccc3[nH]2)c(=O)c2ccccc12 | 491 nM | 331 nM | 351 nM | 311 nM | 510 nM | 471 nM
Cc1ccc(C(=O)Nc2cc3ccccc3oc2=O)cc1 | 665 nM | 1660 nM | 409 nM | 2900 nM | 327 nM | 1000 nM
NC1=C(Br)C(=O)c2ncccc2C1=O | 3100 nM | 2200 nM | 2190 nM | 2200 nM | 3310 nM | 2900 nM
O=C(Nc1nc2cc3c(cc2s1)OCCO3)c1ccco1 | 1980 nM | 1480 nM | 766 nM | 2200 nM | 1750 nM | 2220 nM
CCOc1ccc2nc(NC(=O)c3ccccn3)sc2c1 | inactive | 3500 nM | 2810 nM | 4180 nM | 4390 nM | > 100000 nM
Cc1ccc2oc(/N=C(\N)NC(=O)C(C)(C)C)nc2c1 | inactive | 2990 nM | 412 nM | 5570 nM | 725 nM | > 100000 nM
COC(=O)c1nn(-c2ccc3c(c2)CCN3C(C)=O)cc1O | 4810 nM | 4480 nM | 5010 nM | 3950 nM | 3930 nM | 5690 nM
